Earlier results, collected in patent US20060127506A1, “Compositions of S-adenosyl-L-methionine” (priority 2004, published 2006).

Columns and labels:
[1] = system: Other methyltransferases
[2] = system: S-adenosyl-L-methionine-dependent methyltransferases
[3] = system: nucleolar 2-O-methyltransferase; conditions: (S,S) vs (R,S) diastereomer
[4] = optical purity of 97-100% (Berna et al, US 20020010147)
[5] = oral; alcoholic liver cirrhosis; compared with placebo treated group
[6] = system: beta-adrenergic; conditions: L-form vs D-enantiomer

Structure (SMILES): C[S@@+](CC[C@@H](N)C(=O)O)C[C@H]1O[C@@H](n2cnc3c(N)ncnc32)[C@H](O)[C@@H]1O [(R,S)-S-adenosyl-L-methionine]
- extent of binding relative to (S,S)-S-adenosyl-L-methionine [1]: to the same extent
- inhibition of enzyme-catalyzed transmethylation reactions [2]: potent inhibitor

Structure (SMILES): C[S@@+](CC[C@H](N)C(=O)O)C[C@H]1O[C@@H](n2cnc3c(N)ncnc32)[C@H](O)[C@@H]1O [(S,S)-S-adenosyl-L-methionine]
- tightness of enzyme binding relative to (R,S)-S-adenosyl-L-methionine [3]: 10 fold
- time for which optical purity is sustained before epimerization begins again [4]: ≤ 4 months

Structure (SMILES): C[S+](CC[C@H](N)C(=O)[O-])C[C@H]1O[C@@H](n2cnc3c(N)ncnc32)[C@H](O)[C@@H]1O (stereo partly drawn) [S-adenosyl-L-methionine]
- overall mortality and/or progression to liver transplant [5]: 12%

Structure (SMILES): CC(C)NCC(O)COc1cccc2ccccc12 (stereo not drawn) [propranolol]
- potency of L-form relative to D-enantiomer [6]: 100 times
